ChEMBL document CHEMBL1151407, “Bisbenzylisoquinoline Alkaloids” (1983)

Experiments:
Assay type in all cases: functional
Ehrlich [1] = assay: In vivo antitumor activity against Ehrlich ascite carcinoma in mouse
[2] = In vivo antitumor activity against ascites carcinoma in mouse
[3] = test system: Lewis lung carcinoma cell line; assay: In vivo antitumor activity against mouse Lewis lung carcinoma cells xenografted in mouse assessed as suppression of tumor growth at 100 mg/kg
Ehrlich [4] = assay: In vivo antitumor activity against mouse Ehrlich ascite carcinoma cells xenografted in mouse assessed as suppression of tumor growth at 70 mg/kg
CCRF S-180 = assay: In vivo antitumor activity against mouse S180 cells xenografted in mouse assessed as suppression of tumor growth at 70 mg/kg

SMILES: COc1ccc2cc1Oc1ccc(cc1)C[C@H]1c3cc(OC)c(OC)c(c3CCN1C)Oc1c(OC)c(OC)cc3c1[C@H](C2)N(C)CC3 [THALIDASINE]
- LD50 (Ehrlich [1]): 520 mg/kg
- LD50 [2]: 300 mg/kg
- Activity [3]: 58%
- Activity (Ehrlich [4]): 50%
- Activity (CCRF S-180): 20%
